# In US8318769B2, “Substituted sulfonamide compounds” (Gruenethal GmbH, priority 2008, dated 2012):
# Experiments:
# [1] = target: T1, bradykinin 1 receptor (B1R) of the rat (Rattus norvegicus, UniProt P97583); experiment: FLIPR Ca2+ assay, B1R antagonism, rat; type: cell-based; conditions: CHO-K1, 10 μM test substance; CHO K1 cells with rat B1R gene (rB1R cells); Des-Arg9-bradykinin at EC80; % inhibition compared with the maximum achievable inhibition; read-out: B1R antagonism, rat [10 μM] % inhibition
# T1 construct: expressed in transfected cells
# T1 sequence (P97583 1-337): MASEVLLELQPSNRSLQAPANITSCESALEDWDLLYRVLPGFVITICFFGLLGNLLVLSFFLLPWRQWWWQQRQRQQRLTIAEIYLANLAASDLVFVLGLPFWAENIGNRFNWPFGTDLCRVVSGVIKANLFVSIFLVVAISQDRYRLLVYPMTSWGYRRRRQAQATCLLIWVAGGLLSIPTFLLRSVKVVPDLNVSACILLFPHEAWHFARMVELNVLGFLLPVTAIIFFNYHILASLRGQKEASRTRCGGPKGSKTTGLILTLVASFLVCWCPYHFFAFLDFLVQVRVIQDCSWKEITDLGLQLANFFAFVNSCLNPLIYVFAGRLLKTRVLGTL
# Summary of the method: (§1)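 Antagonism is given as % of maximum achievable suppression of agonist-evoked Ca2+ influx, measured by Fluo-4 peak fluorescence in FLIPR. Stable hB1R or rB1R CHO K1 lines received 10 μM compound for 10-20 min before EC80 Lys-Des-Arg9-bradykinin (human) or Des-Arg9-bradykinin (rat).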
# [2] = target: T2, human bradykinin 1 receptor (B1R) (Homo sapiens, UniProt P46663); experiment: FLIPR Ca2+ assay, B1R antagonism, human; type: cell-based; conditions: 10 μM test substance; CHO K1 cells with human B1R gene (hB1R cells); Lys-Des-Arg9-bradykinin at EC80; % inhibition compared with the maximum achievable inhibition; read-out: B1R antagonism, human [10 μM] % inhibition
# T2 construct: expressed in transfected cells
# T2 sequence (P46663 1-353): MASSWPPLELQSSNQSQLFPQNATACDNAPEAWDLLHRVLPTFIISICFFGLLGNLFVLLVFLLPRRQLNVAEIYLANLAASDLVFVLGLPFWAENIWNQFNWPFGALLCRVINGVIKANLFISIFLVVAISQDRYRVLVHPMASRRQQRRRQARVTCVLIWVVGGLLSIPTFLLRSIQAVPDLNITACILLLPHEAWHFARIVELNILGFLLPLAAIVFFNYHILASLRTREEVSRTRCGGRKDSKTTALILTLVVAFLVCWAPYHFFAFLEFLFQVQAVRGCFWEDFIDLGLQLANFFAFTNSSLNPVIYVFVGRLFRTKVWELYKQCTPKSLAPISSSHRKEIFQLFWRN
# Summary of the method: as §1
Compound,inhibition at 10 µM [1] [%],inhibition at 10 µM [2] [%]
"O=C(CC1CCCCN1S(=O)(=O)c1cccc(C(F)(F)F)c1)N1CCC(OCCN2CCCCC2)(c2cccnc2)CC1 (stereo not shown) [Example 10, 1-(4-(2-(piperidin-1-yl)ethoxy)-4-(pyridin-3-yl)piperidin-1-yl)-2-(1-(3-(trifluoromethyl)phenylsulfonyl)piperidin-2-yl)ethanone]",44,104
"COc1cc(C)c(S(=O)(=O)N2CCCCC2CCCC(=O)N2CCC(OCCN3CCCC3)(c3cccnc3)CC2)c(C)c1 (stereo not shown) [Example 87, 4-[1-[(4-methoxy-2,6-dimethyl-phenyl)sulfonyl]-piperidin-2-yl]-1-[4-pyridin-3-yl-4-(2-pyrrolidin-1-yl-ethoxy)-piperidin-1-yl]-butan-1-one]",102,100
"COc1cc(C)c(S(=O)(=O)N2CCCCC2COCC(=O)N2CCC(OCCCN3CCCC3)(c3cccnc3)CC2)c(C)c1 (stereo not shown) [Example 40, 2-((1-(4-methoxy-2,6-dimethylphenylsulfonyl)piperidin-2-yl)methoxy)-1-(4-(pyridin-3-yl)-4-(3-(pyrrolidin-1-yl)propoxy)piperidin-1-yl)ethanone]",102,99
"COc1cc(C)c(S(=O)(=O)N2CCCCC2CCCC(=O)N2CCC(OCCN3CCCC3)(c3cccc(F)c3)CC2)c(C)c1 (stereo not shown) [Example 89, 1-[4-(3-fluorophenyl)-4-(2-pyrrolidin-1-yl-ethoxy)-piperidin-1-yl]-4-[1-[(4-methoxy-2,6-dimethyl-phenyl)sulfonyl]-piperidin-2-yl]-butan-1-one]",99,100
"COc1cc(C)c(S(=O)(=O)N2CCCC[C@H]2COCC(=O)N2CCC(OCCN3CCCC3)(c3ccncc3)CC2)c(C)c1 [Example 57, 2-[[(2S)-1-[(4-methoxy-2,6-dimethyl-phenyl)sulfonyl]-piperidin-2-yl]-methoxy]-1-[4-pyridin-4-yl-4-(2-pyrrolidin-1-yl-ethoxy)-piperidin-1-yl]-ethanone]",103,100
"COc1cc(C)c(S(=O)(=O)N2CCCC[C@H]2COCC(=O)N2CCC(OCCn3ccnc3)(c3cccnc3)CC2)c(C)c1 [Example 60, 1-[4-[2-(1H-imidazol-1-yl)-ethoxy]-4-pyridin-3-yl-piperidin-1-yl]-2-[[(2S)-1-[(4-methoxy-2,6-dimethyl-phenyl)sulfonyl]-piperidin-2-yl]-methoxy]-ethanone]",102,100
"O=C(COCC1COc2ccccc2N1S(=O)(=O)c1ccccc1C(F)(F)F)N1CCC(OCCN2CCCC2)(c2ccncc2)CC1 (stereo not shown) [Example 112, 1-[4-pyridin-4-yl-4-(2-pyrrolidin-1-yl-ethoxy)-piperidin-1-yl]-2-[[4-[[2-(trifluoromethyl)-phenyl]sulfonyl]-3,4-dihydro-2H-[1,4]benzoxazin-3-yl]-methoxy]-ethanone]",81,100
"COc1cc(C)c(S(=O)(=O)N2c3ccccc3CCC2COCC(=O)N2CCC(OCCN3CCCC3)(c3ccncc3)CC2)c(C)c1 (stereo not shown) [Example 103, 2-[[1-[(4-methoxy-2,6-dimethyl-phenyl)sulfonyl]-1,2,3,4-tetrahydro-quinolin-2-yl]-methoxy]-1-[4-pyridin-4-yl-4-(2-pyrrolidin-1-yl-ethoxy)-piperidin-1-yl]-ethanone]",103,100
"CN1CCN(CCCOC2(c3cccnc3)CCN(C(=O)COCC3CCc4ccccc4N3S(=O)(=O)c3ccc(Cl)c(Cl)c3)CC2)CC1 (stereo not shown) [Example 37, 2-((1-(3,4-dichlorophenylsulfonyl)-1,2,3,4-tetrahydroquinolin-2-yl)methoxy)-1-(4-(3-(4-methylpiperazin-1-yl)propoxy)-4-(pyridin-3-yl)piperidin-1-yl)ethanone]",99,77
"Cc1cc(S(=O)(=O)N2CCCCC2CCC(=O)N2CCC(OCCN3CCN(C)CC3)(c3cccnc3)CC2)c(C)cc1Cl (stereo not shown) [Example 31, 3-(1-(4-chloro-2,5-dimethylphenylsulfonyl)piperidin-2-yl)-1-(4-(2-(4-methylpiperazin-1-yl)ethoxy)-4-(pyridin-3-yl)piperidin-1-yl)propan-1-one]",61,85
"O=C(CC1CCCCN1S(=O)(=O)c1cccc(C(F)(F)F)c1)N1CCC(OCCN2CCCC2)(c2cccnc2)CC1 (stereo not shown) [Example 22, 1-(4-(pyridin-3-yl)-4-(2-(pyrrolidin-1-yl)ethoxy)piperidin-1-yl)-2-(1-(3-(trifluoromethyl)phenylsulfonyl)piperidin-2-yl)ethanone]",102,39
"COc1cc(C)c(S(=O)(=O)N2c3ccccc3CC[C@H]2COCC(=O)N2CCC(OCCN3CCCC3)(c3cccnc3)CC2)c(C)c1 [Example 1, (S)-2-((1-(4-methoxy-2,6-dimethylphenylsulfonyl)-1,2,3,4-tetrahydroquinolin-2-yl)methoxy)-1-(4-(pyridin-3-yl)-4-(2-(pyrrolidin-1-yl)ethoxy)piperidin-1-yl)ethanone]",100,99
"COc1cc(C)c(S(=O)(=O)N2CCCC[C@H]2COCC(=O)N2CCC(OCCN3CCCC3)(c3cccc(Cl)c3)CC2)c(C)c1 [Example 56, 1-[4-(3-chlorophenyl)-4-(2-pyrrolidin-1-yl-ethoxy)-piperidin-1-yl]-2-[[(2S)-1-[(4-methoxy-2,6-dimethyl-phenyl)sulfonyl]-piperidin-2-yl]-methoxy]-ethanone]",100,99
"COc1cc(C)c(S(=O)(=O)N(C)CCOCC(=O)N2CCC(OCCCN3CCCC3)(c3cccnc3)CC2)c(C)c1 [Example 41, 4-methoxy-N,2,6-trimethyl-N-(2-(2-oxo-2-(4-(pyridin-3-yl)-4-(3-(pyrrolidin-1-yl)propoxy)piperidin-1-yl)ethoxy)ethyl)benzenesulfonamide]",101,100
"COc1cc(C)c(S(=O)(=O)N2CCCC[C@H]2COCC(=O)N2CCC(OCCN3CCCC3)(c3cccc(F)c3)CC2)c(C)c1 [Example 51, (S)-1-(4-(3-fluorophenyl)-4-(2-(pyrrolidin-1-yl)ethoxy)piperidin-1-yl)-2-((1-(4-methoxy-2,6-dimethylphenylsulfonyl)piperidin-2-yl)methoxy)ethanone]",97,98
"COc1cc(C)c(S(=O)(=O)N2CCCC[C@H]2COCC(=O)N2CCC(OCCN3CCCC3)(c3cccnc3)C2)c(C)c1 (stereo partly drawn) [Example 50, 2-(((S)-1-(4-methoxy-2,6-dimethylphenylsulfonyl)piperidin-2-yl)methoxy)-1-(3-(pyridin-3-yl)-3-(2-(pyrrolidin-1-yl)ethoxy)pyrrolidin-1-yl)ethanone]",104,100
"COc1cc(C)c(S(=O)(=O)N2CCCC[C@H]2COCC(=O)N2CCCC(OCCN3CCCC3)(c3cccnc3)CC2)c(C)c1 (stereo partly drawn) [Example 55, 2-[[(2S)-1-[(4-methoxy-2,6-dimethyl-phenyl)sulfonyl]-piperidin-2-yl]-methoxy]-1-[4-pyridin-3-yl-4-(2-pyrrolidin-1-yl-ethoxy)-azepan-1-yl]-ethanone]",103,100
